Assays:
[1] = system: Leishmania major; assay: Leishmania major infection of the mouse paw pad; type: in vivo, BALB/c female mice
Excerpt: This model is based in the massive inoculation of Leishmania promatigotes in the mouse paw pad. Under these conditions, the parasite induces a progressive inflammation correlated with the multiplication of parasites at the site of inoculation. BALB/c strain female mice that developed severe and uncontrolled injuries were used (Foote S J, Handman E. Brief Funct Genomic Proteomic, 2005). This model has been used in pharmacology to monitor the therapeutic capacity of new leishmanicide compounds and the preventive capacity of potential vaccines against leishmaniasis ((Nelson K G et al. Antimicrob Agents Chemother. 2006).
The animals were inoculated with 5×10^6 of L. major promastigotes (strain Hervás) in 50 μL of PBS into the plantar pad of the right back paw. As negative control of the infection, a group of mice inoculated with 50 μL of PBS was used. The sizes of the lesions were measured every 7 days until the animals were sacrificed (week 9) using a Vernier caliper. The thickness of the right back paw (infected) and the left back paw (uninfected) of all the animals was measured at the base of the fifth toe. The progression of the inflammation is represented as the difference in thickness between the infected and the non-infected paws. […]

[2] = target: fibroblast growth factor-1 (FGF-1) (Homo sapiens, UniProt P05230); assay: FGF-1 induced mitogenesis in quiescent Balb/c 3T3 fibroblasts; type: cell-based; conditions: potassium salts, except 2-acetoxy-5-hydroxybenzene sulfonate as calcium salt
Sequence of fibroblast growth factor-1 (FGF-1) (P05230 whole entry, species assumed): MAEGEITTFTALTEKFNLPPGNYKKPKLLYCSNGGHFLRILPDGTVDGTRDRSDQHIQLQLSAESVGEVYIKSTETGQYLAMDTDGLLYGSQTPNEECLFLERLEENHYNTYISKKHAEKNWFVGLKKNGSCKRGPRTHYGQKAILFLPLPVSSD
Description: The evaluated compounds were used in the form of potassium salt, except in the first case in which calcium salt was used. The experiments were carried out as described in Fernández-Tornero C et al. J Biol Chem, 2003.

[3] = system: infantile hemangioma; assay: Topical cream in a child with infantile hemangioma; type: in vivo, human; conditions: cream 2.5%, topical twice a day, 1, 2 and 3 months, one child
Excerpt: Photographs of a child showing the effects of the topical treatment with a cream comprising 2,5-dihydroxybenzenesulfonic (DHBS) (2.5%) in a baby suffering infantile hemangioma.
The cream comprising 2,5-dihydroxybenzene sulfonic (2.5%) was topically applied twice a day for 3 months on the face of a child suffering from infantile hemangioma.

[4] = system: endometriotic lesions; assay: Rat model of endometriosis, histology of autologous implant; type: in vivo, Sprague-Dawley rats; conditions: 200 mg/kg/day i.p., two weeks
Excerpt: In these rats, the epithelial layer (a) and the stroma (b) are clearly observed in the endometrium, while longitudinal (c) and circular (d) normal layers of smooth muscle cells are observed in the myometrium adjacent to the peritoneal tissue (e). […] The neovascularization observed in the uterine tissue implanted in control rats (shown with arrows in A) is not present in rats treated with 2,5-dihydroxybenzenesulfonic (DHBS) (C). • D) Magnification of the area marked with a box in C.
Sprague-Dawley rats were anesthetized as described (Fernández-Tornero C et al. J Biol Chem, 2003). Endometriotic lesions were induced using a known rat model of endometriosis (Vernon M W and Wilson E A. Fertil Steril, 1985). In summary, 2 mm fragments of the cervix were autologously implanted between branches in the mesenteric vascular tree. The rats were treated or not treated (control) daily during two weeks after the surgery with 2,5-dihydroxybenzene sulfonic acid (DHBS) (200 mg/kg; i.p.). Then, the rats were sacrificed and the endometrial ectopic tissue was removed to make its histological examination. […] This example illustrates the therapeutic activity of 2,5-dihydroxybenzene sulfonate (DHBS) in the treatment of endometriosis.

[5] = system: human retinal endothelial cells (HREC); assay: Proliferation of human retinal endothelial cells (crystal violet); type: cell-based; conditions: 100 μM, 72 hours; DHBS as calcium salt
Description: (§1) Primary cultures of human retinal endothelial cells (HREC) were used. Cells were obtained from Cell Systems (Virginia, USA) and subcultured with CSC complete medium (Cell Systems). Cells at 2 to 5 passages were seeded in 24-well plates at 7,500 cells/well density and, once attached, the cells were treated or not treated (controls) with 2A-5HBS (500 and 1000 μM) or 5A-2HBS (500 and 1000 μM) and they were allowed to proliferate for 72 hours, with daily medium changes. After that, the proliferation of HREC was evaluated by staining the fixed cells with crystal violet. The number of cells is proportional to the amount of retained dye, which was spectrophotometrically determined by measuring absorbance at 595 nm after removing the dye from the cells. Data are expressed as the percentage of absorbance at 595 nm obtained in control conditions. Data were obtained from two different experiments performed in triplicate.
as §1, with “2,5-DHCME (50” for “2A-5HBS (500”, “100” for “1000 μM) or 5A-2HBS (500 and 1000”, “changes. Under the same conditions, other cultures were treated with calcium 2,5-dihydroxybenzenesulfonate (DHBS; 100 μM) for comparison.” for “changes.”

Question: For `CC(=O)Oc1ccc(OC(C)=O)c(S(=O)(=O)[O-])c1.[K+]` [DABS, potassium 2,5-diacetoxybenzene sulfonate], which “size of the lesion (paw thickness difference)” value ([1]; 200 mg/kg/day i.p. from day 0 to week 9, effect from the third week post-infection) is on record?
Answer: statistically significant reduction in the size of the lesion

Question: What about the FGF-1 induced mitogenesis [2] of the same molecule?
Answer: Inhibition of FGF-1 induced mitogenesis was observed

Question: `O=S(=O)(O)c1cc(O)ccc1O` [DHBS, 2,5-dihydroxybenzene sulfonic acid] was tested. Which “appearance of the hemangioma lesion” value [3] did it give?
Answer: substantial recovery of the lesion

Question: And the “histology of implanted tissue (hematoxylin-eosin)” value [4]?
Answer: athrophy of the cervix tissue implanted

Question: And the “neovascularization of implanted uterine tissue” value [4]?
Answer: not present

Question: What about the “increase of paw thickness (infected vs non-infected paw)” value ([1]; potassium salt 200 mg/kg i.p. daily for 14 days from third week after infection, effect from the eighth week) of the same molecule?
Answer: significant reduction in the increase of paw thickness

Question: And the FGF-1 induced mitogenesis [2]?
Answer: Inhibition of the mitogenesis

Question: And the HREC proliferation [5]?
Answer: failed to significantly affect HREC proliferation

Reference: patent US9198886B2, “Use of 2,5-dihydroxybenzene for the treatment of ocular diseases” (priority 2006, dated 2015)
